Reference: patent US9718770B2, “Substituted thioureas as heat shock protein 70 inhibitors” (Institute of Pharmacology and Toxicology Academy of …, priority 2013, dated 2017)

How the values were obtained:
BT474 = experiment: CDI of example compounds and Lapatinib (ATPlite cell survival); format: cell-based; parameters: key: CDI = AB/(A×B); <1 synergistic; conditions: compound 5 μM + Lapatinib 1 μM, 72 h; Lapatinib-sensitive human breast cancer cells; CDI<1 synergistic, <0.7 very significant, >1 antagonistic
Experimental: (§1) Cells: (BT474 and SK-BR3 are Lapatinib-sensitive human breast cancer cell strains; BT/LapR and SK/LapR are secondary Lapatinib-resistant human breast cancer cell strains upon Lapatinib stimulation; MDA-MB-361 and MDA-MB-453 are natural Lapatinib-resistant human breast cancer cell strains. BT474, MDA-MB-361, SK-BR3 and MDA-MB-453 are from American Type Culture Collection (ATCC))
(§2) In a 100 mm culture dish full of adherent cells, digestion with 1 ml 0.25% pancreatin (GIBCO) was carried out at 37° C. for 5 min, and the reaction was stopped with 2 ml medium (containing 10% FBS, GIBCO). The cells were dispersed and collected. After cell count, the cells were diluted to a concentration of 1×10^5 cells/ml, and were seeded to a 96-well plate at 50 μl/well, 5000 cell/well, 60 wells in total, PBS instead of cells was added to the wells of the outmost circle, and the incubation was carried out at 37° C. for 24 h for adherence.
(§3) For the sample group, samples to be tested were diluted with DMSO to a final concentration of 5 μM; to control wells, the medium containing the same concentration of solvent corresponding to the compound was added, the concentrations of the compounds were identical in each well, 5 wells in parallel were set for each concentration, 25 μL/well, and 25 μL medium was added to each well (for the combination group, 25 μL Lapatinib was added to reach a final concentration of 1 μM). The incubation was carried out at 37° C. for 72 h.
(§4) To each well, 50 μL ATPlite kit substrate solution was added. The plate was under shaking for 3 min, and was then placed in dark for 10 min. The lysis supernatant was drawn at 100 μL/well, and placed in a luminescent plate. The incubated luminescent plate was placed in an iluminescence apparatus, and the iluminescent value was read.
(§5) Data Processing Cell survival rate (%)=Experimental group RLU/control group RLU×100%
(§6) Coefficient of drug interaction (CDI) is used to evaluate the interaction of two drugs, CDI is calculated in accordance with the following formula: CDI=AB/(A×B)×100%. The calculation is performed according to the number of live cells (luminescent value), if CDI<1, the two drugs have a synergistic effect; if CDI<0.7, the synergistic effect is very significant; if CDI=1, the effect of the two drugs in combination is the sum of the effects of the two drugs; if CDI>1, the two drugs have an antagonistic effect.

MDA-MB-361 = experiment: as above; format: cell-based; parameters: key: CDI = AB/(A×B); <1 synergistic; conditions: compound 5 μM + Lapatinib 1 μM, 72 h; natural Lapatinib-resistant human breast cancer cells; CDI<1 synergistic
Experimental: as §1, §2, §3, §4, §5, §6

MDA-MB-453 = experiment: as above; format: cell-based; parameters: key: CDI = AB/(A×B); <1 synergistic; conditions: compound 5 μM + Lapatinib 1 μM, 72 h; natural Lapatinib-resistant human breast cancer cells; CDI<1 synergistic
Experimental: as §1, §2, §3, §4, §5, §6

SK-BR3 = experiment: as above; format: cell-based; parameters: key: CDI = AB/(A×B); <1 synergistic; conditions: compound 5 μM + Lapatinib 1 μM, 72 h; Lapatinib-sensitive human breast cancer cells; CDI<1 synergistic
Experimental: as §1, §2, §3, §4, §5, §6

BT/Lap^R1.0 = experiment: as above; format: cell-based; conditions: compound 5 μM + Lapatinib 1 μM, 72 h; secondary Lapatinib-resistant human breast cancer cells; CDI<1 synergistic
Experimental: as §1, §2, §3, §4, §5, §6

SK/Lap^R1.0 = experiment: as above; format: cell-based; conditions: compound 5 μM + Lapatinib 1 μM, 72 h; secondary Lapatinib-resistant human breast cancer cells; CDI<1 synergistic
Experimental: as §1, §2, §3, §4, §5, §6

Hsp70 ATPase = molecular target: T1, Hsp70 ATPase (Homo sapiens, UniProt P0DMV8); experiment: Inhibition of Hsp70 ATPase activity (malachite green); format: biochemical; conditions: for inhibition at 200 µM / Inhibitory rate (%) on activity of Hsp70 ATPase: repeated screening carried out twice, Hsp70/Hsp40, 1 mM ATP; for inhibition at 200 µM: read-out: Inhibitory rate (%) on activity of Hsp70 ATPase; for inhibition at 200 µM / Inhibitory rate (%) on activity of Hsp70 ATPase / inhibitory rate of Hsp70 ATPase activity: 200 μM; for dose-response relationship with respect to inhibition of Hsp70 ATPase activity: first preliminary screening, 200, 100, 50, 25 and 12.5 μM with Hsp70/Hsp40, FIGS. 1, 2; for inhibitory rate of Hsp70 ATPase activity: preliminary screening, after incubation for 30 min
T1 construct: made in house; host or cells: E. coli
Experimental: (1) Protein: Humanized Hsp70, Hsp40, expressed by E. coli.
(2) Sample to be tested: 26 compound solids with different colors and states. Positive drugs AZ (CAS:1054543-47-3) and VER 155008 (CAS: 1134156-31-2) were synthesized in the laboratory.
(4) ATPase Assay buffer: • 0.017% Triton X-100; • 100 mM Tris-HCl; • 20 mM KCl; • 6 mM MgCl2, pH 7.4.
1) 13.08 μl DnaK (0.15 mg/mL, 2.14 μM), 1.96 μl DnaJ (1 mg/mL, 25 μM) were dissolved in 7.96 μl Assay Buffer (0.017% Triton X-100, 100 mM Tris-HCl, 20 mM KCl, and 6 mM MgCl2, pH 7.4), and the resultant solution was added to each well of the 96 well plate;
2) to each well of the 96 well plate, 1 μL sample to be tested (5 mM) or DMSO (solvent) was added, and vortexed with a Vortex agitator for 10 min; and then standing at 37° C. for 30 min;
3) to each well, 1 μL 25 mM ATP was added, to trigger the enzymatic reaction; (in each well, the final reaction volume was 25 μL, the final concentration of DnaK was 1.12 μM, the final concentration of DnaJ was 1.96 μM, the final concentration of DMSO was 4%, the final concentration of Triton X-100 was 0.01%, the final concentration of ATP was 1 mM, and the final concentration of sample to be tested was 200 μM), the enzymatic reaction was carried out at 37° C. for 3 h;
4) 80 μL Malachite green staining solution was then added to each well, and was vortexed gently;
5) 10 μL of 34% citrate sodium was then added immediately, and vortexed gently, to stop the ATP hydrolysis not caused by ATPase;
6) the resultant mixture was mixed thoroughly at 37° C. for 15 min, and OD620 was measured.
The inhibitory rate of Hsp70 ATPase activity is calculated in accordance with the following formula: Inhibitory rate (%)=(DMSO well OD−Experimental well OD)/(DMSO well OD−Blank well OD)×100
Criteria for preliminary screening: during preliminary screening, an example compound is regarded as effective in inhibition as long as its inhibitory rate is above 20% for Hsp70 ATPase at 200 μM.

T1 sequence (P0DMV8 2-641 limits assumed): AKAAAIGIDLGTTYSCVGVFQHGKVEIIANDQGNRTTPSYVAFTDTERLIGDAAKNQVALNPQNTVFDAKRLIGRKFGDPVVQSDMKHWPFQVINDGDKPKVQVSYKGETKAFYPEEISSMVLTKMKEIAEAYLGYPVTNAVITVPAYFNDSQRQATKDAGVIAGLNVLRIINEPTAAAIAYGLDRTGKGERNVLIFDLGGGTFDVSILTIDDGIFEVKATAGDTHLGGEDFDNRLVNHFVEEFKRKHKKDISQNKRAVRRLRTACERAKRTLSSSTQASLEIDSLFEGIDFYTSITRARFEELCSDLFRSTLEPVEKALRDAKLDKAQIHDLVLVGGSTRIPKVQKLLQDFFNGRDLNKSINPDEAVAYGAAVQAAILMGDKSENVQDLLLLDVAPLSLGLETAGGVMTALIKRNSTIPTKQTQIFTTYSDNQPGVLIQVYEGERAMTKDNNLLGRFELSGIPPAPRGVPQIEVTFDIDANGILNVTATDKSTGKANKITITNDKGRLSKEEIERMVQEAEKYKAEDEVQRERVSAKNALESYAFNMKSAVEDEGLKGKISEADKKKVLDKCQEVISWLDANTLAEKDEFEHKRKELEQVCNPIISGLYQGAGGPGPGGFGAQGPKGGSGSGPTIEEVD

Row | Compound | CDI of example compounds and Lapatinib, BT474 (BT474) | CDI of example compounds and Lapatinib, MDA-MB-361 (MDA-MB-361) | CDI of example compounds and Lapatinib, MDA-MB-453 (MDA-MB-453) | CDI of example compounds and Lapatinib, SK-BR3 (SK-BR3) | CDI of example compounds and Lapatinib, BT/Lap^R1.0 (BT/Lap^R1.0) | CDI of example compounds and Lapatinib, SK/Lap^R1.0 (SK/Lap^R1.0) | inhibition at 200 µM (Hsp70 ATPase) [%] | Inhibitory rate (%) on activity of Hsp70 ATPase (Hsp70 ATPase) [%] | dose-response relationship with respect to inhibition of Hsp70 ATPase activity (Hsp70 ATPase) | inhibitory rate of Hsp70 ATPase activity (Hsp70 ATPase) [%]
1 | Cc1ccccc1NC(=S)NC(CC(C)(C)C)NC(=O)/C=C/c1ccccc1 (stereo not shown) [Example 46, N-[3,3-dimethyl-1-(3-o-methylphenylthioureido)butyl] cinnamamide] | 0.74 | 0.94 | 1.64 | 1.29 | 0.79 | 1.25 | 41 |  |  | 
2 | COc1cc(/C=C/C(=O)NC(NC(=S)NC2CCCCC2)C(C)C)cc(OC)c1OC (stereo not shown) [Example 53, (2E)-N-[1-(3-cyclohexylthioureido)-2-methylpropyl]-3-(3,4,5-trimethoxyphenyl) acrylamide] | 0.82 | 1.19 | 1.33 | 0.97 | 0.8 | 1.23 | 24.4 |  |  | 
3 | COc1cc(/C=C/C(=O)NC(NC(=S)Nc2cccnc2)C(C)(C)C)cc(OC)c1OC (stereo not shown) [Example 27, (2E)-N-[2,2-dimethyl-1-(3-pyridin-3-ylthioureido)propyl]-3-(3,4,5-trimethoxyphenyl) acrylamide] | 0.98 | 0.96 | 1.32 | 1 | 1.01 | 0.97 | 2.17 |  |  | 
4 | CC(C)C(NC(=O)/C=C/c1ccccc1)NC(=S)NC1CCCCC1 (stereo not shown) [Example 55, N-[1-(3-cyclohexylthioureido)-2-methylpropyl] cinnamamide] | 0.89 | 0.94 | 1.41 | 1.2 | 1.01 | 1.8 | 25.9 |  |  | 
5 | COc1cc(/C=C/C(=O)NC(NC(=S)Nc2ccccc2C)C2CC2)cc(OC)c1OC (stereo not shown) [Example 45, (2E)-N-[cyclopropyl-(3-o-methylphenylthioureido)-methyl]-3-(3,4,5-trimethoxyphenyl) acrylamide] | 1.59 | 0.93 | 0.98 | 1.05 | 0.79 | 1.04 | 19.3 |  |  | 
6 | COc1cc(/C=C/C(=O)NC(NC(=S)Nc2ccccc2)C2CC2)cc(OC)c1OC (stereo not shown) [Example 28, (2E)-N-[cyclopropyl-(3-phenylthioureido)-methyl]-3-(3,4,5-trimethoxyphenyl) acrylamide] | 1.07 | 0.93 | 1.21 | 1.06 | 0.99 | 0.95 | 50.5 |  |  | 
7 | COc1ccc(NC(=S)NC(NC(=O)/C=C/c2cc(OC)c(OC)c(OC)c2)C(C)C)cc1 (stereo not shown) [Example 50, (2E)-N-{1-[3-(4-methoxyphenyl)thioureido]-2-methylpropyl}-3-(3,4,5-trimethoxyphenyl) acrylamide] | 1.02 | 0.97 | 1.4 | 1.06 | 1.02 | 0.96 | 28.8 |  |  | 
8 | COc1ccc(-c2nc(-c3cc(C(F)(F)F)cc(C(F)(F)F)c3)n(Cc3ccc(C(N)=O)cc3)c2-c2ccc(OC)cc2)cc1 [AZ, reference compound] |  |  |  |  |  |  |  | 53.04 | dose-response relationship | 53.13
9 | COc1cc(/C=C/C(=O)NC(NC(=S)Nc2ccccc2)C(C)C)cc(OC)c1OC (stereo not shown) [Example 36, (2E)-N-[2-methyl-1-(3-phenylthioureido)propyl]-3-(3,4,5-trimethoxyphenyl) acrylamide] | 0.97 | 0.98 | 1.3 | 1.07 | 0.96 | 0.94 |  |  |  | 
10 | N#Cc1ccc(COC[C@H]2O[C@@H](n3c(NCc4ccc(Cl)c(Cl)c4)nc4c(N)ncnc43)[C@H](O)[C@@H]2O)cc1 [VER155008, reference compound] |  |  |  |  |  |  |  | 43.03 | dose-response relationship | 38.18
